The results in this text go back to US20080207446A1, “Use of Phenylsemicarbazones for Seed Treatment” (BASF Aktiengesellschaft, priority 2005, published 2008).

Holding throughout (assay type): in vivo
The test system of data set [1] is Psila rosae. Nature of the data set: Long-term effect of carrot seed coating against Psila rosae. Particulars: for Percentage of plants infested with Psila rosae (long-term): carrot seed coating 100 ml/unit; for Persistence of the protective effect of seed treatment: carrot seed coating, conclusion from Table 3. On the procedure: The objective of this trial was the direct comparison of metaflumizone with the market standard Birlane™ at 100 ml product per unit of seed. Activity evaluation considered the residual activity of the products up to 124 days after application.
Carrot seeds were coated or left uncoated, sowed and raised as described in Example 2 and subjected to Psila rosae infestation at an approximate density of 300 to 400 insects per trap at days 46 to 53 after sowing. At days 82, 96, 110 and 124, respectively, 100 plants per field were examined for maggot infestation.

For data set [2], the system named is Psila rosae. As to the kind of experiment: Short-term protection of carrots against Psila rosae by seed coating. Particulars: for Reduction of early damage by maggots: conclusion from Table 2. The source says:
In order to determine the efficacy of seed coating against dipteran larvae, carrot seeds were coated with two different concentrations of metaflumizone, Birlane™ or left untreated, then sowed and raised as described in Example 1. At day 35 after sowing, the plants were exposed to infestation by Psila rosae, which was monitored by adult trap catches. 300 to 400 insects per trap indicated fair infestation pressure. At days 35 and 91, respectively, 100 plants per field were examined for maggot infestation.
All test products were applied by seed coating of carrot seeds. Birlane™ was applied according to label recommendations for carrots. Metaflumizone was applied at 50 ml and 100 ml formulated product per seed unit, respectively. The assessments of carrot rooffly damage were conducted 35 and 91 daysafter sowing. Infestation was evaluated by assessing 100 carrot roots per treatment, and the number of infested plants was recorded. The figures included in the table show the percentage of damaged plants by treatment.

The next data set has as its system carrot seeds. As to the kind of experiment: Absence of phytotoxicity: sprouting of treated carrot seeds. Particulars: for Influence on the viability of carrot seeds: seed treatment, conclusion from Table 1. On the procedure: To determine the effect of seed treatment on the viability of seeds and sprouting plants, carrot seeds were either treated with metaflumizone, coated with the insecticide chlorfenvinphos (commercially available under, and herein referred to by, the name Birlane™) or left untreated, then sowed and raised under controlled environmental conditions. At day 20 and day 43, respectively, the percentage of seeds which had sprouted was assessed.

Data set [3] has as its system Psila rosae. Nature of the data set: Effective dosage of metaflumizone on carrot seeds against Psila rosae. The source says:
In order to quantify the effect of metaflumizone against maggots, carrot seeds were coated with different concentrations of metaflumizone, with Birlane™ or left uncoated, then sowed and raised as described in the above Examples.

The next data set has as its system Helix hortensis. As to the kind of experiment: Greenhouse snail trial on sprayed lettuce. Particulars: lettuce sprayed with 240 g active ingredient per ha (240 g/l suspension concentrate). On the procedure:
For this example, a 240 g/l suspension concentrate of a compound I with R^1=trifluoromethyl in meta position, R^2=cyano in para position and R^3=trifluoromethoxy in para position was used with an application rate of 240 gram active ingredient per ha.
The trial was carried out in the greenhouse under practical conditions in sandy soil. Three lettuce plants, variety Filipo, growth stage 45-46, were used as plot size. The lettuce was sprayed with a solution of the above mentioned compound at a rate of 240 gram active ingredient per hectare with 500 l/ha water. For spraying was a single Teejet® nozzle, model 8002 (from Spraying System Mobile Systems Division, Wheaton, Ill., USA), at 3 atmosphere pressure used.
After the spray application, the plots were covered by net cages (diameter 40 cm) and 20 snails (sexually mature individuals of Helix hortensis) were added to every plot.
Also an estimation of eating damages was recorded.

Setting [4] is: 4 days after placing the snails.

With `N#Cc1ccc(CC(=NNC(=O)Nc2ccc(OC(F)(F)F)cc2)c2cccc(C(F)(F)F)c2)cc1` (racemic) [metaflumizone, 2-[2-(4-cyanophenyl)-1-[3-(trifluoromethyl)phenyl]ethylidene]-N-[4-(trifluoromethoxy)phenyl]hydrazinecarboxamide], the “Percentage of plants infested with Psila rosae (long-term)” value with Psila rosae [1] (Day 82) turned out to be 2%; in the data set on Psila rosae [1] (Day 96), 4%; with Psila rosae [1] (Day 110), 10%; in the data set with Psila rosae [1] (Day 124) it was 22%. Also, in the data set on Psila rosae [1], the “Persistence of the protective effect of seed treatment” value is “gradually wore off after 3-4 months”. For the same molecule, the “Percentage of plants infested with Psila rosae” value with Psila rosae [2] (carrot seed coating 50 ml/unit, Day 35 after sowing) was 3%; in the data set on Psila rosae [2] (carrot seed coating 50 ml/unit, Day 91 after sowing), 12%; in the data set on Psila rosae [2] (carrot seed coating 100 ml/unit, Day 35 after sowing), 7%; with Psila rosae [2] (carrot seed coating 100 ml/unit, Day 91 after sowing), 10%. The “Reduction of early damage by maggots” value in the data set with Psila rosae [2] (carrot seed coating) is given as “effective in reducing early damage by maggots”. Further, the “Prevention of damage to seedlings compared with Birlane” value in the data set with Psila rosae [2] (carrot seed coating, during the first weeks) is “slightly more efficient than Birlane™”. Besides, the “Percentage of growing plants” value with carrot seeds (carrot, in vivo, 20 day) is given as 42%; with carrot seeds (carrot, in vivo, 43 day) it was 47%. Further, the “Influence on the viability of carrot seeds” value in the data set on carrot seeds is “no significant influence”. Besides, the “Effective dosage of metaflumizone in the treatment of carrot seeds (percentage)” value (shortened to “Effective dosage of metaflumizone … (percentage)”) in the data set with Psila rosae [3] (25 ml/unit, Day 70) is 2%; in the data set with Psila rosae [3] (25 ml/unit, Day 97), 33%; with Psila rosae [3] (25 ml/unit, Day 116) it was 73%; in the data set with Psila rosae [3] (50 ml/unit, Day 70), 1%; in the data set with Psila rosae [3] (50 ml/unit, Day 97), 24%; in the data set with Psila rosae [3] (50 ml/unit, Day 116), 61%. The “Effective dosage of metaflumizone … (percentage)” value is 0% in the data set on Psila rosae [3] (75 ml/unit, Day 70); 14% with Psila rosae [3] (75 ml/unit, Day 97); 55% in the data set with Psila rosae [3] (75 ml/unit, Day 116); 0% in the data set on Psila rosae [3] (100 ml/unit, Day 70); 29% in the data set with Psila rosae [3] (100 ml/unit, Day 97); 55% in the data set on Psila rosae [3] (100 ml/unit, Day 116).

Regarding `CCOP(=O)(OCC)O/C(=C\Cl)c1ccc(Cl)cc1Cl` [Birlane ™, chlorfenvinphos, reference compound], the “Percentage of plants infested with Psila rosae (long-term)” value in the data set on Psila rosae [1] (Day 82) is given as 0.5%; in the data set on Psila rosae [1] (Day 96) it was 2%; with Psila rosae [1] (Day 110), 8%; in the data set with Psila rosae [1] (Day 124), 11%. In addition, in the data set with Psila rosae [1], the “Persistence of the protective effect of seed treatment” value was “gradually wore off after 3-4 months”. Also, the “Percentage of plants infested with Psila rosae” value was determined as 9% in the data set with Psila rosae [2] (carrot seed coating according to label recommendations, Day 35 after sowing) and 12% with Psila rosae [2] (carrot seed coating according to label recommendations, Day 91 after sowing). In addition, the “Reduction of early damage by maggots” value in the data set with Psila rosae [2] (carrot seed coating) was “effective in reducing early damage by maggots”. Besides, the “Percentage of growing plants” value was found to be 52% with carrot seeds (carrot seeds, Day 20, coated with Birlane) and 56% in the data set with carrot seeds (carrot seeds, Day 43, coated with Birlane). Moreover, the “Influence on the viability of carrot seeds” value in the data set on carrot seeds is “no significant influence”. The “Effective dosage of metaflumizone … (percentage)” value in the data set on Psila rosae [3] (Birlane, dose not given, Day 70) is 0.1%; in the data set on Psila rosae [3] (Birlane, dose not given, Day 97) it was 23%; in the data set with Psila rosae [3] (Birlane, dose not given, Day 116), 61%.

In the data set with Helix hortensis (1 day after placing the snails), `N#Cc1ccc(C/C(=N/NC(=O)Nc2ccc(OC(F)(F)F)cc2)c2cccc(C(F)(F)F)c2)cc1` [metaflumizone, 2-[2-(4-cyanophenyl)-1-[3-(trifluoromethyl)phenyl]ethylidene]-N-[4-(trifluoromethoxy)phenyl]hydrazinecarboxamide] had a snails inactive of 47%. The molecule also returned a snails inactive with Helix hortensis (2 days after placing the snails) of 63%. In addition, in the data set on Helix hortensis (setting [4]), the snails dead was 71% and the “snails inactive (further to the dead)” value was determined as 12%.
